pIC50: −log10 of the molar value.

The first assay deals with T1, human PAD4 (Homo sapiens, UniProt Q9UM07).
T1 construct: human PAD4 (NM_012387), A2P663, was PCR amplified; His-SUMO (N, cleaved yes); made in house; host or cells: E. coli BL21(DE3)
T1 sequence (Q9UM07 2-663): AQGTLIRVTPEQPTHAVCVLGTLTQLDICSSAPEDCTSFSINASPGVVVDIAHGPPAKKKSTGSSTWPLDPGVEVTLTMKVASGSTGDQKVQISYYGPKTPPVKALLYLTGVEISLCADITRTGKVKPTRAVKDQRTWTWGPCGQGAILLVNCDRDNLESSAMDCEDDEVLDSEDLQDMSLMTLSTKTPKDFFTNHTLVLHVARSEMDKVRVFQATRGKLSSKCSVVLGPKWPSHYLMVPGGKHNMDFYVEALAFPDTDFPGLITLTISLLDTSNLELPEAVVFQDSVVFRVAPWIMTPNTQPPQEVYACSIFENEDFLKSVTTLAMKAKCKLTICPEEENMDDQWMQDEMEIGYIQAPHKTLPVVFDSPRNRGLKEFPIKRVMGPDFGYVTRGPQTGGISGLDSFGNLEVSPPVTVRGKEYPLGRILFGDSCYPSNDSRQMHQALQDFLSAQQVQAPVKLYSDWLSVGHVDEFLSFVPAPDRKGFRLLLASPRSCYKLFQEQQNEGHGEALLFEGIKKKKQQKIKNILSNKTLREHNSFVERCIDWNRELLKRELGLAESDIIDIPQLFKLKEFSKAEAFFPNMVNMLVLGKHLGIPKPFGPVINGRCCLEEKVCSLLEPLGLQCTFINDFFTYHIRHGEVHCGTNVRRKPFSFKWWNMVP
The assay is described as follows: In vitro PAD4 BAEE biochemical assay. The conditions noted are these: human PAD4, BAEE substrate; 5 nM PAD4, 2 mM calcium chloride, 3 mM BAEE; geometric mean of multiple experiments. The method, boiled down:
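Ammonia release from BAEE deimination monitored by o-phthalaldehyde amine coupling (1 h, 25 °C) after EDTA stop. Final conditions: 5 nM tag-free recombinant human PAD4 (E. coli), 2 mM CaCl2, 3 mM BAEE, pH 7.6 MOPS with DTT; 30 min compound preincubation, then 2 h reaction at 25 °C.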
A word on the pIC50: it is −log10 of the IC50, conventionally taken in molar units. On to `COc1cc(C(=O)N2[C@H]3CC[C@@H]2[C@H](N)C3)cc2nc(-c3cc4ccc(Oc5ccccc5)nc4n3CC3CC3)c(C)n12` [Example 628, [(1~{R},2~{R},4~{S})-2-amino-7-azabicyclo [2.2.1]heptan-7-yl]-[2-[1-(cyclopropylmethyl)-6-phenoxypyrrolo[2,3-b]pyridin-2-yl]-5-methoxy-3-methylimidazo[1,2-a]pyridin-7-yl]methanone], for which the pIC50 was 6.26.
Same read-out and setting: under `COc1cc(C(=O)N2CC[C@@H]3CCCN[C@@H]3C2)cc2nc(-c3cc4ccc([C@@H](C)NC(=O)C56CC(F)(C5)C6)nc4n3CC3CC3)c(C)n12` [Example 181, ~{N}-[(1~{R})-1-[2-[7-[(4~{a}~{S},8~{a}~{S})-2,3,4,4~{a},5,6,8,8~{a}-octahydro-1~{H}-1,7-naphthyridine-7-carbonyl]-5-methoxy-3-methylimidazo [1,2-a]pyridin-2-yl]-1-(cyclopropylmethyl)pyrrolo [2,3-b]pyridin-6-yl]ethyl]-3-fluorobicyclo[1.1.1]pentane-1-carboxamide] stands 4.98.
Take `COc1cc(C(=O)N2[C@H]3CC[C@@H]2[C@H](N)C3)cc2nc(-c3cc4ccc(N(C)S(C)(=O)=O)nc4n3CC3CC3C)c(C)n12` (stereo partly drawn) [Example 490, ~{N}-[2-[7-[(1~{R},2~{R}, 4~{S})-2-amino-7-azabicyclo[2.2.1]heptane-7-carbonyl]-5-methoxy-3-methylimidazo[1,2-a]pyridin-2-yl]-1-[(2-methylcyclopropyl)methyl]pyrrolo[2,3-b]pyridin-6-yl]-~{N}-methylmethanesulfonamide]: the pIC50 was 7.12.
As for `COc1cc(C(=O)N2CC[C@@H]3CCNC[C@H]32)cc2nc(-c3cc4ccc(N(C(F)F)S(C)(=O)=O)nc4n3CC3CC3)c(C)n12` [Example 418, ~{N}-[2-[7-[(3~{a}~{S}, 7~{a}~{S})-2,3,3~{a},4,5,6,7,7~{a}-octahydropyrrolo[2,3-c]pyridine-1-carbonyl]-5-methoxy-3-methylimidazo[1,2-a]pyridin-2-yl]-1-(cyclopropylmethyl)pyrrolo [2,3-b]pyridin-6-yl]-~{N}-(difluoromethyl) methanesulfonamide], the pIC50 is 6.82.
For `COc1cc(C(=O)N2C[C@H](N)CC[C@@H]2C)cc2nc(-c3cc4ccc(N(C)S(C)(=O)=O)nc4n3CC3CC3)c(C)n12` [Example 481, N-(2-(7-((2S,5R)-5-amino-2-methylpiperidine-1-carbonyl)-5-methoxy-3-methylimidazo[1,2-a]pyridin-2-yl)-1-(cyclopropylmethyl)-1H-pyrrolo[2,3-b]pyridin-6-yl)-N-methylmethanesulfonamide], the negative logarithm of the IC50 (pIC50) was 6.82.
Still for that read-out and setting: with `CCc1ccc2cc(-c3nc4cc(C(=O)N5[C@H]6CC[C@@H]5[C@H](N)C6)cc(OC)n4c3C)n(CC(F)F)c2n1` [Example 502, [(1~{R},2~{R},4~{S})-2-amino-7-azabicyclo [2.2.1]heptan-7-yl]-[2-[1-(2,2-difluoroethyl)-6-ethylpyrrolo[2,3-b]pyridin-2-yl]-5-methoxy-3-methylimidazo [1,2-a]pyridin-7-yl] methanone] the figure was 6.59; with `COc1cc(C(=O)N2[C@H]3CC[C@@H]2[C@H](N)C3)cc2nc(-c3cc4ccc([C@@H](C)CC(=O)N5CCCC5)nc4n3CC3CC3)c(C)n12` [Example 523, (3~{S})-3-[2-[7-[(1~{R},2~{R},4~{S})-2-amino-7-azabicyclo[2.2.1]heptane-7-carbonyl]-5-methoxy-3-methylimidazo [1,2-a]pyridin-2-yl]-1-(cyclopropylmethyl)pyrrolo[2,3-b]pyridin-6-yl]-1-pyrrolidin-1-ylbutan-1-one], 7.23.
Same read-out and setting: with `COc1cc(C(=O)N2CC[C@H]3CCN[C@H]3C2)cc2nc(-c3cc4ccc(N(C(F)F)S(C)(=O)=O)nc4n3CC3CC3)c(C)n12` [Example 420, ~{N}-[2-[7-[(3~{a}~{R},7~{a}~{R})-1,2,3,3~{a},4,5,7,7~{a}-octahydropyrrolo[2,3-c]pyridine-6-carbonyl]-5-methoxy-3-methylimidazo [1,2-a]pyridin-2-yl]-1-(cyclopropylmethyl)pyrrolo [2,3-b]pyridin-6-yl]-~{N}-(difluoromethyl) methanesulfonamide] the figure was 7.22; with `COc1cc(C(=O)N2[C@H]3CC[C@@H]2[C@H](N)C3)cc2nc(-c3cc4ccc([C@@H](C)NC(=O)C56CCC(F)(CC5)CC6)nc4n3CC3CC3)c(C)n12` [Example 63, ~{N}-[(1~{R})-1-[2-[7-[(1~{R},2~{R}, 4~{S})-2-amino-7-azabicyclo[2.2.1]heptane-7-carbonyl]-5-methoxy-3-methylimidazo [1,2-a]pyridin-2-yl]-1-(cyclopropylmethyl)pyrrolo[2,3-b]pyridin-6-yl]ethyl]-4-fluorobicyclo[2.2.2] octane-1-carboxamide], 7.07.
On the same count and under the same terms, with `COc1cc(C(=O)N2CCC[C@@H](N)C2)cc2nc(-c3cc4ccc([C@H](C)CC(=O)N(C)C)nc4n3CC3CC3)c(C)n12` [Example 534, (3~{R})-3-[2-[7-[(3~{R})-3-aminopiperidine-1-carbonyl]-5-methoxy-3-methylimidazo[1,2-a]pyridin-2-yl]-1-(cyclopropylmethyl)pyrrolo[2,3-b]pyridin-6-yl]-~{N},~{N}-dimethylbutanamide] the figure was 6.85.
For the molecule `COc1cc(C(=O)N2[C@H]3CC[C@@H]2[C@H](N)C3)cc2nc(-c3cc4ccc([C@@H](C)NC(=O)N5CCOCC5)nc4n3CC3CC3)c(C)n12` [Example 241, ~{N}-[(1~{R})-1-[2-[7-[(1~{R},2~{R},4~{S})-2-amino-7-azabicyclo[2.2.1]heptane-7-carbonyl]-5-methoxy-3-methylimidazo [1,2-a]pyridin-2-yl]-1-(cyclopropylmethyl)pyrrolo [2,3-b]pyridin-6-yl]ethyl] morpholine-4-carboxamide], the pIC50 was 7.26.
Turning to `COc1cc(C(=O)N2[C@H]3CC[C@@H]2[C@H](N)C3)cc2nc(-c3cc4ccc([C@@H](C)NC(=O)CC(C)(C)OC)nc4n3CC3CC3)c(C)n12` [Example 39, ~{N}-[(1~{R})-1-[2-[7-[(1~{R},2~{R},4~{S})-2-amino-7-azabicyclo[2.2.1]heptane-7-carbonyl]-5-methoxy-3-methylimidazo[1,2-a]pyridin-2-yl]-1-(cyclopropylmethyl)pyrrolo[2,3-b]pyridin-6-yl]ethyl]-3-methoxy-3-methylbutanamide], the pIC50 is 7.06.
Regarding `COc1cc(C(=O)N2[C@H]3CC[C@@H]2[C@H](N)C3)cc2nc(-c3cc4ccc(N5CCN(C)CCS5(=O)=O)nc4n3CC3CC3)c(C)n12` [Example 443, [(1~{R},2~{R},4~{S})-2-amino-7-azabicyclo [2.2.1]heptan-7-yl]-[2-[1-(cyclopropylmethyl)-6-(5-methyl-1,1-dioxo-1,2,5-thiadiazepan-2-yl)pyrrolo[2,3-b]pyridin-2-yl]-5-methoxy-3-methylimidazo [1,2-a]pyridin-7-yl] methanone], the pIC50 was 7.46.
`COc1cc(C(=O)N2C[C@@H]3CNCC[C@@H]32)cc2nc(-c3cc4ccc(N(C(F)F)S(C)(=O)=O)nc4n3CC3CC3)c(C)n12` [Example 283, ~{N}-[1-(cyclopropylmethyl)-2-[7-[(1~{S},6~{S})-3,7-diazabicyclo[4.2.0]octane-7-carbonyl]-5-methoxy-3-methylimidazo[1,2-a]pyridin-2-yl]pyrrolo[2,3-b]pyridin-6-yl]-~{N}-(difluoromethyl) methanesulfonamide]: the pIC50 is 4.93.
With `CCc1ccc2cc(-c3nc4cc(C(=O)N5[C@H]6CC[C@@H]5[C@H](N)C6)cc(OC)n4c3C)n(CC(C)(F)F)c2n1` [Example 500, [(1~{R},2~{R},4~{S})-2-amino-7-azabicyclo [2.2.1]heptan-7-yl]-[2-[1-(2,2-difluoropropyl)-6-ethylpyrrolo[2,3-b]pyridin-2-yl]-5-methoxy-3-methylimidazo [1,2-a]pyridin-7-yl] methanone], the pIC50 was 6.80.
For the molecule `COc1cc(C(=O)N2CCC[C@@H](N)C2)cc2nc(-c3cc4ccc(-c5cccnc5-c5ccccc5)nc4n3CC3CC3)c(C)n12` [Example 607, [(3~{R})-3-aminopiperidin-1-yl]-[2-[1-(cyclopropylmethyl)-6-(2-phenylpyridin-3-yl)pyrrolo [2,3-b]pyridin-2-yl]-5-methoxy-3-methylimidazo[1,2-a]pyridin-7-yl]methanone], the pIC50 was 6.46.
On the same count and under the same terms, with `COc1cc(C(=O)N2[C@H]3CC[C@@H]2[C@H](N)[C@H](O)C3)cc2nc(-c3cc4ccc([C@@H](C)NC(=O)C(C)(C)C)nc4n3CC3CC3)c(C)n12` [Example 60, ~{N}-[(1~{R})-1-[2-[7-[(1~{R},2~{S},3~{R}, 5~{S})-2-amino-3-hydroxy-8-azabicyclo[3.2.1]octane-8-carbonyl]-5-methoxy-3-methylimidazo [1,2-a]pyridin-2-yl]-1-(cyclopropylmethyl)pyrrolo[2,3-b]pyridin-6-yl]ethyl]-2,2-dimethylpropanamide] the figure was 6.65.

In the next assay the test system is murine CIA model.
Test: not given
The conditions noted are these: prophylactic treatment; cited from earlier work.
Turning to `NC(=O)[C@H](CCCN=C(N)CCl)NC(=O)c1ccccc1` [chloroamidine], the “clinical and histological scores” value is “improvement of clinical and histological scores”.
For the molecule GSK199, the “clinical and histological scores” value was “improvement of clinical and histological scores”.

Another assay relates to models of chronic and acute inflammatory diseases.
Test: not given
As to conditions: MRL/lpr lupus, hemorrhagic shock in rats, CLP sepsis, DSS-colitis, ApoE-/- arteriosclerosis, diabetic wound healing models; cited from earlier work.
Regarding YW3-56, the “clinical, inflammatory, histopathological and mechanical end points, NETosis, outcome” value is “reduction of clinical, inflammatory, histopathological and mechanical end points”.
Regarding `NC(=O)[C@H](CCCN=C(N)CCl)NC(=O)c1ccccc1` [chloroamidine], the “clinical, inflammatory, histopathological and mechanical end points, NETosis, outcome” value is “reduction of clinical, inflammatory, histopathological and mechanical end points”.

Source of the values: patent US12240862B2, “Inhibitors of peptidylarginine deiminases” (Gilead Sciences, Inc., priority 2020, dated 2025).
